In PubChem BioAssay (NCI):
Where “and” joins values, the source holds several entries; their conditions need not be identical. Equal values may be shown once.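 Results reflect a 48-hour exposure of cells in 96-well plates to compound at five concentrations. GI50: concentration for 50% inhibition of growth. TGI marks complete inhibition of growth.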

Columns and labels:
Test in all cases: NCI-60 cell line screen, 48 h
U251 CNS = test system: U251 CNS
SN12C renal = test system: SN12C renal
SF-268 CNS = test system: SF-268 CNS
HCT-116 colon = test system: HCT-116 colon
OVCAR-8 ovarian = test system: OVCAR-8 ovarian
HCC-2998 colon = test system: HCC-2998 colon
K-562 leukemia = test system: K-562 leukemia
SK-MEL-28 melanoma = test system: SK-MEL-28 melanoma
A498 renal = test system: A498 renal
RPMI-8226 leukemia = test system: RPMI-8226 leukemia

Row | Compound | GI50 (U251 CNS) | TGI (U251 CNS) | GI50 (SN12C renal) | TGI (SN12C renal) | GI50 (SF-268 CNS) | TGI (SF-268 CNS) | GI50 (HCT-116 colon) | TGI (HCT-116 colon) | GI50 (OVCAR-8 ovarian) | TGI (OVCAR-8 ovarian) | GI50 (HCC-2998 colon) | TGI (HCC-2998 colon) | GI50 (K-562 leukemia) | TGI (K-562 leukemia) | GI50 (SK-MEL-28 melanoma) | TGI (SK-MEL-28 melanoma) | GI50 (A498 renal) | TGI (A498 renal) | GI50 (RPMI-8226 leukemia) | TGI (RPMI-8226 leukemia)
1 | O=C1C2CC3C(CC2C(=O)[N]1[Sn]([c]1ccccc1)([c]1ccccc1)[c]1ccccc1)C1(Cl)C(Cl)=C(Cl)C3(Cl)C1(Cl)Cl (stereo not drawn) | 0.119 µM | 0.252 µM | 0.17 µM | 0.448 µM | 0.111 µM | 0.286 µM | 0.0473 µM | 0.183 µM | 0.155 µM | 0.375 µM | 0.122 µM | 0.281 µM | 0.0492 µM | 0.754 µM | 0.144 µM | 0.295 µM | 0.12 µM | 0.276 µM | 0.106 µM | 0.53 µM
2 | CN1CCC23c4c5ccc(O)c4OC2C(=NN=C2CCC4(O)C6Cc7ccc(O)c8c7C4(CCN6C)C2O8)CCC3(O)C1C5 (stereo not drawn) | – | > 100 µM | – | > 100 µM | – | > 100 µM | – | – | – | > 100 µM | – | > 100 µM | – | > 100 µM | – | > 100 µM | – | > 100 µM | – | > 100 µM
3 | COC(=O)C1=CC(O)CCC1c1ccc(OC)cc1 (stereo not drawn) | – | > 100 µM | – | > 100 µM | – | > 100 µM | – | > 100 µM | – | > 100 µM | – | > 100 µM | – | > 100 µM | – | > 100 µM | – | > 100 µM | – | > 100 µM
4 | CCc1ccccc1NC(=O)/C(CC(=O)c1c(C)n([O-])c2ccccc2[n+]1=O)=N\NS(=O)(=O)c1ccc(C)cc1 | – | > 100 µM | – | > 100 µM | – | > 100 µM | – | 55.3 µM | – | > 100 µM | – | > 100 µM | – | > 100 µM | – | > 100 µM | – | > 100 µM | – | 40 µM
5 | CC1(C)SC2C(C(=O)O)N=C(Cc3ccccc3)N2C1C(=O)O (stereo not drawn) | – | > 100 µM | – | > 100 µM | – | 98.1 µM | – | > 100 µM | – | > 100 µM | – | 56.9 µM | – | > 100 µM | – | > 100 µM | – | > 100 µM | – | > 100 µM
6 | CC(=O)O[C@H](C[C@H](C(C)C)N(C)C(=O)[C@@H](NC(=O)[C@H]1CCCCN1C)C(C)C)c1nc(C(=O)N[C@@H](Cc2ccccc2)C[C@H](C)C(=O)O)c(C)s1 | < 0.0025 µM | > 25 µM | < 0.0025 µM | > 25 µM | < 0.0025 µM | > 25 µM | < 0.0025 µM | > 25 µM | < 0.0025 µM | > 25 µM | < 0.0025 µM | > 25 µM | < 0.0025 µM | > 25 µM | < 0.0025 µM | > 25 µM | < 0.0025 µM | < 0.0025 µM | < 0.0025 µM | > 25 µM
7 | COc1ccc(C(=S)c2cc(OC)c(OC)c(OC)c2)cc1OC(=O)CCl | 0.0341 µM | > 100 µM | 0.0241 µM | > 100 µM | 0.054 µM | > 100 µM | < 0.0174 µM | > 100 µM | 0.0355 µM | > 100 µM | 0.0418 µM | > 100 µM | < 0.01 µM | > 100 µM | – | – | 0.179 µM | 2.5 µM | < 0.0196 µM | 25.2 µM
8 | CC[C@H](C)c1occ2c(O)c(C(=O)O)c(=O)cc-2c1C | – | 74.6 µM | – | 81.4 µM | – | > 100 µM | – | 41.5 µM | – | 41.4 µM | – | 36.8 µM | – | > 100 µM | – | – | – | 93.5 µM | – | 90.8 µM
9 | N=c1ccn2c(n1)OC1C(OP(=O)(O)O)C(CO)OC12 (stereo not drawn) | – | > 100 µM | – | > 100 µM | – | > 100 µM | – | > 100 µM | – | > 100 µM | – | 96.4 µM | – | > 100 µM | – | > 100 µM | – | > 100 µM | – | > 100 µM
10 | O=C(OC(C(=O)O)C(OC(=O)c1ccccc1)C(=O)O)c1ccccc1 (stereo not drawn) (tested in a mixture with another compound) | – | > 100 µM | – | > 100 µM | – | > 100 µM | – | 55 µM | – | > 100 µM | – | > 100 µM | – | > 100 µM | – | > 100 µM | – | > 100 µM | – | > 100 µM
11 | COc1ccc(OC)c(/C=C/c2nnc(Nc3ccc(Cl)cc3)o2)c1 | 3.81 µM | 14.3 µM | 4.21 µM | > 100 µM | 7.6 µM | 37.9 µM | 2.97 µM | 13.1 µM | 4.91 µM | 21 µM | > 100 µM | > 100 µM | 92.8 µM | > 100 µM | 26.8 µM | > 100 µM | 1.87 µM | 7.76 µM | > 100 µM | > 100 µM
12 | Nc1ccccc1NC(=O)c1ccc(CSc2nc(N3CCOCC3)c3cccn3n2)cc1 | 0.565 µM | 5.61 µM | 1.38 µM | > 100 µM | 0.732 µM | 10.5 µM | 0.379 µM | > 100 µM | 0.509 µM | > 100 µM | 2 µM | 7.41 µM | 0.312 µM | > 100 µM | 1 µM | 31.3 µM | 1.09 µM | 5.34 µM | 0.311 µM | 1.26 µM
13 | COc1ccccc1/C=C/C(=O)c1sc(-c2cccnc2)nc1C | – | > 100 µM | – | > 100 µM | – | > 100 µM | – | – | – | > 100 µM | – | > 100 µM | – | > 100 µM | – | > 100 µM | – | > 100 µM | – | > 100 µM
14 | COc1ccc(-c2cc(-c3ccc(Nc4nc(Nc5ccc(Cl)cc5)nc(Nc5ccc(Cl)cc5)n4)cc3)no2)cc1 | 11.2 µM | > 100 µM | 20.2 µM | > 100 µM | 9.3 µM | 38.2 µM | 4.33 µM | 17.1 µM | 12.6 µM | 55.3 µM | 2.37 µM | 8.25 µM | 2.96 µM | 18.5 µM | 11.7 µM | 41.4 µM | 14 µM | 61.1 µM | 13.1 µM | 48.2 µM
15 | Nc1ncc(-c2cnn(C3CCNCC3)c2)cc1-c1nc2ccccc2o1 | 1.48 µM | 3.26 µM | 0.478 µM | 4.41 µM | 1.74 µM | 4.58 µM | 0.616 µM | 2.03 µM | 2.59 µM | 8.9 µM | 1.18 µM | 3.09 µM | 0.309 µM | 1.07 µM | 1.74 µM | 3.17 µM | 1.53 µM | 3.46 µM | 0.857 µM | 2.7 µM
16 | CCCCCCCC[N+](C)(C)Cc1ccc(C[N+](C)(C)CCCCCCCC)cc1 | – | > 100 µM | – | > 100 µM | – | > 100 µM | – | > 100 µM | – | > 100 µM | – | > 100 µM | – | > 100 µM | – | > 100 µM | – | > 100 µM | – | > 100 µM
17 | CNC(=O)c1ccc(Nc2ncc(C(F)(F)F)c(NCc3nccnc3N(C)S(C)(=O)=O)n2)cc1 | 3.29 µM and 3.18 µM and 2.88 µM | > 10 µM and 12 µM and 13.6 µM | 3.46 µM and 3.4 µM and 3.41 µM | > 10 µM and 11.8 µM and 14.7 µM | 2.89 µM and 2.23 µM and 2.73 µM | > 10 µM and 8.63 µM and 11 µM | 2.08 µM and 2.4 µM and 1.71 µM | > 10 µM and 10.5 µM and 15.1 µM | 3.44 µM and 3.69 µM and 3.83 µM | > 10 µM and 13.6 µM and 18 µM | 3.68 µM and 2.54 µM and 3.86 µM | > 10 µM and 12.9 µM and 18 µM | 4.84 µM and 3.2 µM and 3.42 µM | > 10 µM and 17.7 µM and > 61.1 µM | 3.96 µM and 2.88 µM and 2.64 µM | > 10 µM and 9.49 µM and 9.43 µM | 2.02 µM and 1.59 µM and 1.39 µM | 5.61 µM and 3.89 µM and 4.18 µM | 2.59 µM and 2.95 µM and 2.27 µM | 6.9 µM and 8.16 µM and 7.58 µM
18 | C=C(C)C(=O)NC(N)=NC#N | 131 µM | 260 µM | 72.1 µM | 199 µM | 139 µM | 62.5 µM and 354 µM | 131 µM | 257 µM | 119 µM | > 90 µM and 287 µM | – | 261 µM | – | 51.5 µM and 58.5 µM | 75 µM | > 56.9 µM and 205 µM | 201 µM | > 46.4 µM and 345 µM | 24.7 µM | 44.9 µM and 120 µM
19 | CC(=O)[O-].CC(=O)[O-].[Mn+2].c1ccc(/C(=N\Nc2ccccn2)c2ccccn2)cc1 | – | 8.15 µM | – | 6.83 µM | – | 13.5 µM | – | 0.739 µM | – | 12.3 µM | – | 14.8 µM | 0.00305 µM | – | – | 19.7 µM | – | 30.6 µM | – | 7.04 µM
20 | O=c1c(O)c(-c2ccc(O)c(O)c2)oc2cc(O)ccc12 | – | 35.6 µM | – | 56.4 µM | – | > 74.1 µM | – | 26.2 µM | – | 56.3 µM | – | 41.9 µM | – | > 100 µM | – | > 58.4 µM | – | 62.3 µM | – | > 79.9 µM
21 | COc1ccc(-c2coc3ncnc(N)c23)cc1 | > 25 µM | > 25 µM | > 25 µM | > 25 µM | > 25 µM | > 25 µM | > 25 µM | > 25 µM | > 25 µM | > 25 µM | > 25 µM | > 25 µM | > 25 µM | > 25 µM | > 25 µM | > 25 µM | 13.7 µM | > 25 µM | > 25 µM | > 25 µM
22 | CC1=CC2=C(OCO1)C(=O)c1ccccc1C2=O | – | 13.3 µM | – | 11.4 µM | – | 26.1 µM | – | 19.6 µM | – | 32.3 µM | – | > 100 µM | – | 40.3 µM | – | 10.3 µM | – | 29.5 µM | – | > 100 µM
23 | COc1cc2[nH]c(C(=O)c3cc(OC)c(OC)c(OC)c3)c(N)c2cc1C#CCO | 0.431 µM | > 100 µM | 1.4 µM | 98.3 µM | 0.957 µM | 73.4 µM | 0.298 µM | > 100 µM | 0.533 µM | > 100 µM | 0.775 µM | > 100 µM | 0.347 µM | > 100 µM | 0.896 µM | > 100 µM | 0.23 µM | 2.14 µM | 1.64 µM | 83.6 µM
